The text below walks through data of BindingDB's records for PubMed 32222663 (n/a, 2020).

The target in the assay is T1, Heparanase (Homo sapiens, UniProt Q9Y251).
T1 sequence (Q9Y251 whole entry): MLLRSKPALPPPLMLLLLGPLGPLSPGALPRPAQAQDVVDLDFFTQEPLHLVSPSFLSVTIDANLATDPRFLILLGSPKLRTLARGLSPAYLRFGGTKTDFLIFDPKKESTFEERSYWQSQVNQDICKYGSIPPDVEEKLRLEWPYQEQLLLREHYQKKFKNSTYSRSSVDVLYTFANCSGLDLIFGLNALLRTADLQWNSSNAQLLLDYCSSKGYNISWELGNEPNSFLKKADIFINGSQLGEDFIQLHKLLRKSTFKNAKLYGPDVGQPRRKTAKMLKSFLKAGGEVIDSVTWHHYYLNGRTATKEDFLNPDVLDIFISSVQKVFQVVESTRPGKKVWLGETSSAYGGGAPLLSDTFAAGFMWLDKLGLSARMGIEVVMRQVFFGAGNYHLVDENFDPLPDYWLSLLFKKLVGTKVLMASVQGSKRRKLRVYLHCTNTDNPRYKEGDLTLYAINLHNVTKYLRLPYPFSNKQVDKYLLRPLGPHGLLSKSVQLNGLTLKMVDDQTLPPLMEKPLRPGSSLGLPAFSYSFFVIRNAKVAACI
In words: Inhibition of recombinant human heparanase incubated for 4 hrs by beta-scintillation counter analysis.

As a reminder, the IC50 is the concentration at which inhibition is half-maximal. In the case of `O=S(=O)(O)OC[C@H]1O[C@H](O[C@H]2[C@H](OS(=O)(=O)O)[C@H](OS(=O)(=O)O)C(C3O[C@H](COS(=O)(=O)O)[C@@H](O[C@H]4O[C@H](COS(=O)(=O)O)[C@@H](O[C@H]5O[C@H](COS(=O)(=O)O)[C@@H](OS(=O)(=O)O)[C@H](OS(=O)(=O)O)[C@@H]5OS(=O)(=O)O)[C@H](OS(=O)(=O)O)[C@@H]4OS(=O)(=O)O)[C@H](OS(=O)(=O)O)[C@@H]3OS(=O)(=O)O)O[C@@H]2COS(=O)(=O)O)[C@@H](OS(=O)(=O)O)[C@@H](OS(=O)(=O)O)[C@@H]1O[C@H]1O[C@H](COS(=O)(=O)O)[C@@H](OS(=O)(=O)O)[C@H](OS(=O)(=O)O)[C@@H]1OS(=O)(=O)O` (stereo partly specified), the half-maximal inhibitory concentration (IC50) was 5 nM.
